Here are results for 13 compounds from patent US20260274894A1, “CYCLIC POLYPEPTIDE COMPOUND AND USE THEREOF” (BIVISION PHARMACEUTICALS, INC., priority 2023, published 2026).

For the assay, the target named is T1, FAP protein (Homo sapiens, UniProt Q12884).
T1 construct: purchased Sinobiological
T1 sequence (Q12884 1-760): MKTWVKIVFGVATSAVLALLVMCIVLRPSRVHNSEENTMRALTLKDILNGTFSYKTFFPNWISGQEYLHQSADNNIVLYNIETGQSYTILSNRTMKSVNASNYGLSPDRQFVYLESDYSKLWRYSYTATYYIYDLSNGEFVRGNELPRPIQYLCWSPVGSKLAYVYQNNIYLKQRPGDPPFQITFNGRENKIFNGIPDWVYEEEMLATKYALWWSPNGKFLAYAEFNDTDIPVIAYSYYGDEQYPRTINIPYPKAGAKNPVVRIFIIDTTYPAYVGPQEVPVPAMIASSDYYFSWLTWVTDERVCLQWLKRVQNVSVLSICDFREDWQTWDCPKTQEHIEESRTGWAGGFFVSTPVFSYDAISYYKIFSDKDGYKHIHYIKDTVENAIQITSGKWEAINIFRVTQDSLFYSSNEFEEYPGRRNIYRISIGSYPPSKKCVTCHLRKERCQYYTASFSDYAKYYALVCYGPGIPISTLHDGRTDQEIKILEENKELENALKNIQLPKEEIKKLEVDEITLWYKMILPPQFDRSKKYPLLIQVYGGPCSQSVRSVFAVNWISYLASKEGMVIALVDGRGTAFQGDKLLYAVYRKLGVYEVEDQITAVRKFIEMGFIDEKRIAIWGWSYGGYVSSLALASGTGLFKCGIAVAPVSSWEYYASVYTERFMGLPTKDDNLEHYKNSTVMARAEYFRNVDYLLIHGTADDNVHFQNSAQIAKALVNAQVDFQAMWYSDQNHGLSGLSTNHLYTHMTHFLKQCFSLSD
The assay is described as follows: Biacore test of compound affinity to FAP protein. Particulars: Biacore 8K, SA chip, 15° C., 1:1 binding model; read-out: pKD (FAP) (converted). How it is done:
The Biacore 8K (Cytiva) instrument was used to detect ligand binding of the FAP protein (Sinobiological). FAP protein was captured on the SA chip. […] The sensor surface was conditioned by injecting 1M NaCl three consecutive times in 50 mM NaOH. After each ligand injection, additional cleaning was performed using isopropanol in 1M NaCl and 50 mM NaOH (flow path 1 and 2, flow rate of 10 μL/min, injection time of 60 s). […] The analyte was run under the following conditions: analysis temperature of 15° C., analysis step=all set to LMW kinetics; cycle type=single cycle (contact time of 90 s, dissociation time of 1800 s, flow rate of 30 μL/min, flow channels 1 and 2); channel detection=2-1. Data was evaluated using the Biacore Insight Evaluation Software, and the data were fitted to a 1:1 binding model. The Biacore results are shown in Table 2 below: pKD=−Log KD, where KD is the binding affinity of the compound to the FAP protein as measured by Biacore.

Numbered stars: 1 amine (or outer) side, 2 acyl side, 3 side chain; on linkers, the order of the positions; unused ones are H or OH. Bridge positions count the residues as written; N and C are the ends. Square brackets hold non-standard residues; d marks the D form. Side chains are listed from the residue outwards. Peptide text beside a SMILES is read from it. * marks the point of attachment. ξ: configuration not given here. NH(CH2)2O(CH2)2NHDOTA = O=C(O)CN1CCN(CC(=O)O)CCN(CC(=O)NCCOCCN*)CCN(CC(=O)O)CC1; X4 = O=C(O)CN1CCN(CC(=O)O)CCN(CC(=O)N2CCc3cc(C(=O)*)ccc3C2)CCN(CC(=O)O)CC1; NH(CH2)5NHDOTA = O=C(O)CN1CCN(CC(=O)O)CCN(CC(=O)NCCCCCN*)CCN(CC(=O)O)CC1; DOTA = O=C(O)CN1CCN(CC(=O)O)CCN(CC(=O)*)CCN(CC(=O)O)CC1; Azetidine3carboxylic = O=C(C1CN([*:1])C1)[*:2]; Pyridine(3,5-bisCH2) = c1ncc(C[*:2])cc1C[*:1]; mXylylene = c1cc(C[*:1])cc(C[*:2])c1; Ethylenediamine = C(CN[*:2])N[*:1]; d(β3hD) = NC(CC(=O)O)CC(=O)O; CH2CH2 = C(C[*:2])[*:1]; Dap = NC[C@H](N)C(=O)O; Hexanoyl = CCCCCC(=O)*; CO = O=C([*:1])[*:2]; ξP = O=C(O)C1CCCN1; Ava = NCCCCC(=O)O; ξC = NC(CS)C(=O)O; NHBu = CCCCN*

As for `CCCCNC(=O)N[C@H]1CSCc2cccc(c2)CSCC(C(=O)N[C@@H](CCC(=O)NCCNC(=O)c2ccc3c(c2)CCN(C(=O)CN2CCN(CC(=O)O)CCN(CC(=O)O)CCN(CC(=O)O)CC2)C3)C(=O)O)NC(=O)[C@H](Cc2ccccc2)NC(=O)[C@H](CCC(N)=O)NC(=O)[C@H]([C@@H](C)O)NC(=O)C2CCCN2C(=O)C2CN(C2)C1=O` (stereo partly drawn) [JHDC26, nBu-urea-[Cys(3MeBn)-hhy39-Pro-Thr-Gln-Phe-Cys]-Glu-(EDA-hhy02-DOTA)-OH] ({NHBu-CO}-C[Azetidine3carboxylic][ξP]TQF[ξC]E([Ethylenediamine-X4])-OH; linker 1-7 via mXylylene), the Kd was 0.01 to 0.1 µM.

As for `CCCCCC(=O)N[C@H]1CSCCSCC(C(=O)N[C@@H](CCC(=O)NCCOCCNC(=O)CN2CCN(CC(=O)O)CCN(CC(=O)O)CCN(CC(=O)O)CC2)C(=O)O)NC(=O)[C@H](Cc2ccccc2)NC(=O)[C@H](CCC(N)=O)NC(=O)[C@H]([C@@H](C)O)NC(=O)C2CCCN2C(=O)C2CN(C2)C1=O` (stereo partly drawn) [JHDC27, Hex[Cys(ethylene)-hhy39-Pro-Thr-Gln-Phe-Cys]-Glu-(DAPEG2-DOTA)-OH] (Hexanoyl-C[Azetidine3carboxylic][ξP]TQF[ξC]E(NH(CH2)2O(CH2)2NHDOTA)-OH; linker 1-7 via CH2CH2), the Kd was 0.01 to 0.1 µM.

For the compound `CCCCNC(=O)N[C@H]1CSCc2cccc(c2)CSCC(C(=O)N[C@@H](CCC(=O)NCCCCCNC(=O)CN2CCN(CC(=O)O)CCN(CC(=O)O)CCN(CC(=O)O)CC2)C(=O)O)NC(=O)[C@H](Cc2ccccc2)NC(=O)[C@H](CCC(N)=O)NC(=O)[C@H]([C@@H](C)O)NC(=O)C2CCCN2C(=O)C2CN(C2)C1=O` (stereo partly drawn) [JHDC28, nBu-urea-[Cys(3MeBn)-hhy39-Pro-Thr-Gln-Phe-Cys]-Glu-(PDA-DOTA)-OH] ({NHBu-CO}-C[Azetidine3carboxylic][ξP]TQF[ξC]E(NH(CH2)5NHDOTA)-OH; linker 1-7 via mXylylene), the Kd was 0.01 to 0.1 µM.

`CCCCCC(=O)N[C@H]1CSCc2cccc(c2)CSCC(C(=O)N[C@@H](CCC(=O)NCCCCCNC(=O)CN2CCN(CC(=O)O)CCN(CC(=O)O)CCN(CC(=O)O)CC2)C(=O)O)NC(=O)[C@H](Cc2ccccc2)NC(=O)[C@H](CCC(N)=O)NC(=O)[C@H]([C@@H](C)O)NC(=O)C2CCCN2C(=O)C2CN(C2)C1=O` (stereo partly drawn) [JHDC29, Hex[Cys(3MeBn)-hhy39-Pro-Thr-Gln-Phe-Cys]-Glu-(PDA-DOTA)-OH] (Hexanoyl-C[Azetidine3carboxylic][ξP]TQF[ξC]E(NH(CH2)5NHDOTA)-OH; linker 1-7 via mXylylene): the Kd is 0.01 to 0.1 µM.

For the compound `CCCCCC(=O)N[C@H]1CSSCC(C(=O)N[C@@H](CCC(=O)NCCOCCNC(=O)CN2CCN(CC(=O)O)CCN(CC(=O)O)CCN(CC(=O)O)CC2)C(=O)O)NC(=O)[C@H](Cc2ccccc2)NC(=O)[C@H](CCC(N)=O)NC(=O)[C@H]([C@@H](C)O)NC(=O)C2CCCN2C(=O)C2CN(C2)C1=O` (stereo partly drawn) [JHDC30, Hex[Cys(SS)-hhy39-Pro-Thr-Gln-Phe-Cys]-Glu-(DAPEG2-DOTA)-OH] (Hexanoyl-C[Azetidine3carboxylic][ξP]TQF[ξC]E(NH(CH2)2O(CH2)2NHDOTA)-OH; disulfide 1-7), the Kd was 0.01 to 0.1 µM.

Take `CCCCNC(=O)N[C@H]1CSSCC(C(=O)N[C@@H](CCC(=O)NCCOCCNC(=O)CN2CCN(CC(=O)O)CCN(CC(=O)O)CCN(CC(=O)O)CC2)C(=O)O)NC(=O)[C@H](Cc2ccccc2)NC(=O)[C@H](CCC(N)=O)NC(=O)[C@H]([C@@H](C)O)NC(=O)C2CCCN2C(=O)C2CN(C2)C1=O` (stereo partly drawn) [JHDC31, nBu-urea-[Cys(SS)-hhy39-Pro-Thr-Gln-Phe-Cys]-Glu-(DAPEG2-DOTA)-OH] ({NHBu-CO}-C[Azetidine3carboxylic][ξP]TQF[ξC]E(NH(CH2)2O(CH2)2NHDOTA)-OH; disulfide 1-7): the Kd is 0.01 to 0.1 µM.

Turning to `CCCCCC(=O)N[C@H]1CSCc2cncc(c2)CSCC(C(=O)N[C@@H](CCC(=O)NCCOCCNC(=O)CN2CCN(CC(=O)O)CCN(CC(=O)O)CCN(CC(=O)O)CC2)C(=O)O)NC(=O)[C@H](Cc2ccccc2)NC(=O)[C@H](CCC(N)=O)NC(=O)[C@H]([C@@H](C)O)NC(=O)C2CCCN2C(=O)C2CN(C2)C1=O` (stereo partly drawn) [JHDC32, Hex[Cys(3MePy)-hhy39-Pro-Thr-Gln-Phe-Cys]-Glu-(DAPEG2-DOTA)-OH] (Hexanoyl-C[Azetidine3carboxylic][ξP]TQF[ξC]E(NH(CH2)2O(CH2)2NHDOTA)-OH; linker 1-7 via Pyridine(3,5-bisCH2)), the Kd was 0.01 to 0.1 µM.

Take `CCCCNC(=O)N[C@H]1CSCc2cncc(c2)CSCC(C(=O)N[C@@H](CCC(=O)NCCOCCNC(=O)CN2CCN(CC(=O)O)CCN(CC(=O)O)CCN(CC(=O)O)CC2)C(=O)O)NC(=O)[C@H](Cc2ccccc2)NC(=O)[C@H](CCC(N)=O)NC(=O)[C@H]([C@@H](C)O)NC(=O)C2CCCN2C(=O)C2CN(C2)C1=O` (stereo partly drawn) [JHDC33, nBu-urea-[Cys(3MePy)-hhy39-Pro-Thr-Gln-Phe-Cys]-Glu-(DAPEG2-DOTA)-OH] ({NHBu-CO}-C[Azetidine3carboxylic][ξP]TQF[ξC]E(NH(CH2)2O(CH2)2NHDOTA)-OH; linker 1-7 via Pyridine(3,5-bisCH2)): the Kd is 0.01 to 0.1 µM.

For `CCCCNC(=O)N[C@H]1CSCc2cccc(c2)CSCC(C(=O)N[C@H](CC(=O)O)CC(=O)NCCOCCNC(=O)CN2CCN(CC(=O)O)CCN(CC(=O)O)CCN(CC(=O)O)CC2)NC(=O)[C@H](Cc2ccccc2)NC(=O)[C@H](CCC(N)=O)NC(=O)[C@H]([C@@H](C)O)NC(=O)C2CCCN2C(=O)C2CN(C2)C1=O` (stereo partly drawn) [JHDC34, nBu-urea-[Cys(3MeBn)-hhy39-Pro-Thr-Gln-Phe-Cys]-p-Glu-(DAPEG2-DOTA)-OH] ({NHBu-CO}-C[Azetidine3carboxylic][ξP]TQF[ξC][d(β3hD)]-{NH(CH2)2O(CH2)2NHDOTA}; linker 1-7 via mXylylene), the Kd is 0.01 to 0.1 µM.

In the case of `CCCCNC(=O)N[C@H]1CSCc2cccc(c2)CSCC(C(=O)N[C@H](CC(=O)O)CC(=O)NCCNC(=O)CN2CCN(CC(=O)O)CCN(CC(=O)O)CCN(CC(=O)O)CC2)NC(=O)[C@H](Cc2ccccc2)NC(=O)[C@H](CCC(N)=O)NC(=O)[C@H]([C@@H](C)O)NC(=O)C2CCCN2C(=O)C2CN(C2)C1=O` (stereo partly drawn) [JHDC35, nBu-urea-[Cys(3MeBn)-hhy39-Pro-Thr-Gln-Phe-Cys]-p-Glu-(EDA-DOTA)-OH] ({NHBu-CO}-C[Azetidine3carboxylic][ξP]TQF[ξC][d(β3hD)]-{Ethylenediamine-DOTA}; linker 1-7 via mXylylene), the Kd was 0.01 to 0.1 µM.

In the case of `CCCCCC(=O)N[C@H]1CSCc2cccc(c2)CSCC(C(=O)N[C@H](CC(=O)O)CC(=O)NCCOCCNC(=O)CN2CCN(CC(=O)O)CCN(CC(=O)O)CCN(CC(=O)O)CC2)NC(=O)[C@H](Cc2ccccc2)NC(=O)[C@H](CCC(N)=O)NC(=O)[C@H]([C@@H](C)O)NC(=O)C2CCCN2C(=O)C2CN(C2)C1=O` (stereo partly drawn) [JHDC36, Hex-[Cys(3MeBn)-hhy39-Pro-Thr-Gln-Phe-Cys]-β-Glu-(DAPEG2-DOTA)-OH] (Hexanoyl-C[Azetidine3carboxylic][ξP]TQF[ξC][d(β3hD)]-{NH(CH2)2O(CH2)2NHDOTA}; linker 1-7 via mXylylene), the Kd was 0.01 to 0.1 µM.

As to `CCCCCC(=O)N[C@H]1CSCc2cccc(c2)CSCC(C(=O)N[C@@H](CNC(=O)CCCCNC(=O)CN2CCN(CC(=O)O)CCN(CC(=O)O)CCN(CC(=O)O)CC2)C(=O)O)NC(=O)[C@H](Cc2ccccc2)NC(=O)[C@H](CCC(N)=O)NC(=O)[C@H]([C@@H](C)O)NC(=O)C2CCCN2C(=O)C2CN(C2)C1=O` (stereo partly drawn) [JHDC40, Hex-[Cys(3MeBn)-hhy39-Pro-Thr-Gln-Phe-Cys]-DAPA-(APTA-DOTA)-OH] (Hexanoyl-C[Azetidine3carboxylic][ξP]TQF[ξC][Dap]([Ava-DOTA])-OH; linker 1-7 via mXylylene), the Kd is 0.01 to 0.1 µM.

Consider `CCCCNC(=O)N[C@H]1CSCc2cccc(c2)CSCC(C(=O)N[C@@H](CNC(=O)CCCCNC(=O)CN2CCN(CC(=O)O)CCN(CC(=O)O)CCN(CC(=O)O)CC2)C(=O)O)NC(=O)[C@H](Cc2ccccc2)NC(=O)[C@H](CCC(N)=O)NC(=O)[C@H]([C@@H](C)O)NC(=O)C2CCCN2C(=O)C2CN(C2)C1=O` (stereo partly drawn) [JHDC41, nBu-urea-[Cys(3MeBn)-hhy39-Pro-Thr-Gln-Phe-Cys]-DAPA-(APTA-DOTA)-OH] ({NHBu-CO}-C[Azetidine3carboxylic][ξP]TQF[ξC][Dap]([Ava-DOTA])-OH; linker 1-7 via mXylylene), for which the Kd is 0.01 to 0.1 µM.
